Data from patent publication US9562053B2, “Benzo-fused heterocyclic derivatives useful as agonists of GPR120” (Janssen Pharmaceutica NV, priority 2013, dated 2017).

Molecular target: T1, long form of human GPR120 (Homo sapiens, UniProt Q5NUL3)
T1 construct: host or cells: PathHunter CHO-K1 GPR120 β-Arrestin Cell Line
T1 sequence (Q5NUL3 1-377 isoform Q5NUL3-1): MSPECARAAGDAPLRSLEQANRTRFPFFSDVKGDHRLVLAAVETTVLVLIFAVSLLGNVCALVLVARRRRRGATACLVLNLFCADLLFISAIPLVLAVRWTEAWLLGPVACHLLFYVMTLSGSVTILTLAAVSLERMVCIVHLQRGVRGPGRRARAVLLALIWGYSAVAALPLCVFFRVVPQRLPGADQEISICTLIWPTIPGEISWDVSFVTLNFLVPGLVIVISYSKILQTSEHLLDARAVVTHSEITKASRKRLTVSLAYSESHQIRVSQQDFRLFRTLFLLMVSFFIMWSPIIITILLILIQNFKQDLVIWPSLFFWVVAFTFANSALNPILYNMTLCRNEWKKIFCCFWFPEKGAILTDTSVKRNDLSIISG
Assay: Human GPR120 DiscoveRx PathHunter Beta-Arrestin Assay, Procedure β-arrestin A (3000 cells per well)
Type: cell-based
Settings: read-out: GPR120 B-arrestin A EC50
Summary of the method: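 PathHunter CHO-K1 cells with long-form receptor, 3000/well, seeded overnight at 37 °C; equilibrated 60 min at 37 °C in HBSS/20 mM HEPES/0.1% BSA, pH 7.4. Compound serial dilutions (25–0.012 μM) added for 90 min at 37 °C, detection 60 min at room temperature, luminescence read; EC50 from % of positive control, Hill slope fixed at 1.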

`Cc1cc2cc(Cl)cc(COc3ccc(CCC(=O)O)c(C)c3C)c2s1` [Compound 91, 3-{4-[(5-Chloro-2-methyl-1-benzothiophen-7-yl)methoxy]-2,3-dimethylphenyl}propanoic acid] gave an EC50 of 629 nM.
